The values below come from publication PMC5642495, “Characterization of a novel androgen receptor (AR) coregulator RIPK1 and related chemicals that suppress AR-mediated prostate cancer growth via peptide and chemical screening” (Oncotarget, 2017).

The subject of one assay is AR. On the set-up: method as in PMID 24742982. The following applies: cited from earlier work.
For another assay, the system named is AR transactivation. Nature of the assay: AR transcriptional reporter assay in PC-3 cells. The assay is classed as cell-based, human. The note with it: 10 nM DHT, 1 µM. The method, then:
Figure 1 Associations between RIPK1 and AR (A) Co-IP of Flag-RIPK1 with Flag-AR in the 293T cell line. Extracts of 293T cells overexpressing 3xFlag-RIPK1 and 3xFlag-AR were treated with […]. IP was performed using anti-AR (C19) or anti-RIPK1 antibody or normal rabbit serum (negative control), followed by immunoblotting (IB) with antibodies against AR or RIPK1. (B) RIPK1 interacts with full-length AR and the N- and C-terminal regions of AR in GST pull-down assays. Mutation of the FxxFY motif to AxxAA in RIPK1 reduced interactions with AR. […] (C) Transfection of PC-3 prostate cancer cells with AR and RIPK1. PC-3 cells in 24-well plates were co-transfected with 300 ng MMTV-LUC reporter plasmid and 0.5 ng SV40-Renilla luciferase plasmid, together with 100 ng pCMV-Flag-AR and 100, 300 or 500 ng p3xFLAG- RIPK1. The total plasmid DNA content was made up to 1 µg with pCMV. After 16 h, ethanol or 10 nM DHT was added and cells incubated for an additional 16 h. DHT was used as the AR ligand while ARA70N served as the positive control. Relative LUC activity was determined using the dual luciferase system. (D) RIPK1 functional domain mapping in relation to AR transactivation. PC-3 cells were transfected with pCMV-Flag-AR and RIPK1 expression plasmid, P3xFlag-RIPK1 full-length, P3xFlag-RIPK1-(240-671) or P3xflag-RIPK1-(1-558) plasmid, and cultured overnight. Ethanol or 10 nM DHT was added and cells incubated for an additional 16 h. Relative LUC activity was determined using the dual luciferase system. (E) RIPK1 is expressed in benign prostatic hyperplasia tissue, displaying strong positivity (3+, > 90%) in the gland area but weak (1+, 50%) staining in the background. (F) Human prostate cancer tissues were immunostained for RIPK1. “T” indicates the tumor area (right side) and “Non-T” the non-tumor area (left side). RIPK1 expression was weak (1+, 80%) in the cancer area but remained strong (3+, 70%) in the peri-cancer area. The figures are representative of three benign prostatic gland hyperplasia and cancer tissues.
The PC-3 prostate cancer cell line was used for experiments. […]
For orientation: A reporter such as luciferase makes a cellular process visible.

Assay [1] addresses W741L-AR (bicalutamide-associated mutant androgen receptor, mammalian two-hybrid) (human). Nature of the assay: two-hybrid; mammalian two-hybrid (MM2H) in PC-3 cells; Gal-4 peptide fusion with AR; CDX (bicalutamide) 10 µM; values relative to Gal-4 alone.

Sequence of W741L-AR (bicalutamide-associated mutant androgen receptor, mammalian two-hybrid) (human) (P10275 whole entry, stated change not applied, the tested form may be a part): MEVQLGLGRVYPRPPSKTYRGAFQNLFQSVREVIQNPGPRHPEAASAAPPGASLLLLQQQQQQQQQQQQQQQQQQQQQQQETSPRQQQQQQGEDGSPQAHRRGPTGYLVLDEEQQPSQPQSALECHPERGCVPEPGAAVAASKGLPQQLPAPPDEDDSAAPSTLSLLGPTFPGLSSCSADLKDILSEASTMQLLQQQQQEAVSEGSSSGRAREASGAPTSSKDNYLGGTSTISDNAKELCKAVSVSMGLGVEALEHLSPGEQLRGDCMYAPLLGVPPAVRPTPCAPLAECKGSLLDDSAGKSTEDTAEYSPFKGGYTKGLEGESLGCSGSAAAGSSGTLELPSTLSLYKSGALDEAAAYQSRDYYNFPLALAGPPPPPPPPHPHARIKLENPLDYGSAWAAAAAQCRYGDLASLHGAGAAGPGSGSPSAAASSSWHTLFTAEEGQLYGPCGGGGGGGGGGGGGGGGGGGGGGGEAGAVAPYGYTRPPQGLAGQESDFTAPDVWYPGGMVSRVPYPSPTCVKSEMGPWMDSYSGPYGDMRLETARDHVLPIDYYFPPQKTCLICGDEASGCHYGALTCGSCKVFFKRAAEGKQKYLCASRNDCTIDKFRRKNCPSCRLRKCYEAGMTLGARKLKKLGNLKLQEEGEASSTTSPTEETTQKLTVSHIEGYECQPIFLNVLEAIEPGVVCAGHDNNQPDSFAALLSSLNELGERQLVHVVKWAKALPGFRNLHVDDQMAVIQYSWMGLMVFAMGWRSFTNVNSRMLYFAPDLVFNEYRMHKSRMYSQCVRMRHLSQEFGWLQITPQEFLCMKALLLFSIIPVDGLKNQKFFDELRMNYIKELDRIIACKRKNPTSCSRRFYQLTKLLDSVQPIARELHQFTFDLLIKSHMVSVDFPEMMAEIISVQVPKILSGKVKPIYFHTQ

Take `Nc1cc(N2CCCCC2)nc(N)[n+]1[O-]` [Minoxidil]: the “suppression of AR related function” value with AR was “suppress AR related function”.
With `CNC(=O)c1ccc(N2C(=S)N(c3ccc(C#N)c(C(F)(F)F)c3)C(=O)C2(C)C)cc1F` [enzalutamide, reference compound], the “suppression of AR transactivation” value in the assay on AR transactivation is recorded as “suppressed AR transactivation”.

B1: #3-18 peptide (No. 12, positive control; GAL4-DBD-3-18) (peptide)
peptide: NTNAFSRLFYPS
B1: in assay [1], the relative reporter activity in the mammalian two-hybrid assay (Gal-4 alone = 1) came out at 128.

B2: RIP-p, short FxxFY-containing peptide of RIPK1 (No. 13) (peptide)
peptide: GIEEKFRPFYLSQLE
Regarding B2, the relative reporter activity in the mammalian two-hybrid assay (Gal-4 alone = 1) in assay [1] turned out to be 554.
